One test addresses T1, JAK2 tyrosine kinase (Homo sapiens, UniProt O60674).
T1 construct: purchased Carna Biosciences, Inc
The test can be described thus: JAK2 tyrosine kinase inhibitory activity test (ELISA). Type of test: biochemical, humans. Conditions: 25 μM ATP substrate solution, 30° C., one hour. The procedure: (§1) 1. Preparation of Test Substance:
(§2) A test substance was dissolved in dimethyl sulfoxide (DMSO) to 10 mM and further diluted with DMSO to concentrations of 100-fold of the concentrations to be measured (100, 10, 1, 0.1, and 0.01 μM). Furthermore, the resultant was diluted with an assay buffer to 20-fold, thereby preparing a solution as a test substance solution. A solution prepared by diluting DMSO with an assay buffer to 20-fold was used as a negative control. A buffer containing 15 mM Tris-Cl (pH 7.5), 0.01 (v/v) % Tween-20, and 1 mM dithiothreitol was used as the assay buffer.
(§3) 2. Measurement of ROS Tyrosine Kinase Activity and JAK2 Tyrosine Kinase Activity:
(§4) The activity was measured by adopting the ELISA method. […] Finally, an ROS kinase or a JAK2 kinase (derived from humans, Carna Biosciences, Inc.) (diluted with the assay buffer to 0.25 nM) was added to the plate at 20 μL per well, and the resulting mixture was stirred. A reaction was performed at 30° C. for one hour. After the plate was washed 4 times with a washing buffer (50 mM Tris-Cl (pH 7.5), 150 mM NaCl, and 0.02 (v/v) % Tween-20), a blocking buffer (0.1% bovine serum albumin, 50 mM Tris-Cl (pH 7.5), 150 mM NaCl, and 0.02 (v/v) % Tween-20) was added to the plate at 150 μL per well, and incubated at 30° C. for 30 minutes. The blocking buffer was then removed, and a horse radish peroxidase-labeled anti-phosphorylated tyrosine antibody (BD Biosciences, Inc.) (diluted with the blocking buffer to 10,000-fold) was added to the plate at 100 μL per well, and the plate was incubated at 30° C. for 30 minutes. After the plate was washed 4 times with the washing buffer, a 3,3′,5,5′-tetramethylbenzidine solution (Sigma-Aldrich Co., Ltd.) was added to the plate at 100 μL per well to develop the color for 10 minutes. The reaction was stopped by adding 0.1 M sulfuric acid at 100 μL per well. An absorbance at 450 nm was measured with a microplate reader (Model 3550, manufactured by BIO-RAD, Benchmark, manufactured by BIO-RAD, or iMARK, manufactured by BIO-RAD).
(§5) 3. Analysis of Measurement Results:
(§6) A non-linear regression analysis was performed for the measured absorbance with an SAS system (SAS Institute Inc.), and a concentration of each of the test substances of inhibiting the ROS tyrosine kinase activity or JAK2 tyrosine kinase activity at 50% (IC50) was calculated. The inhibitory activity (IC50, nM) of each of the test substances against the ROS tyrosine kinase or JAK2 tyrosine kinase is shown in Tables 6 to 8.

The next test addresses T2, FIG-ROS/BaF3 cell (Homo sapiens, UniProt P08922).
T2 construct: fused on or other part: Q9HD26 (Golgi-associated PDZ and coiled-coil motif-containing protein)
Description: Proliferation inhibitory activity test against FIG-ROS/BaF3 cell. It is filed as cell-based. The following applies: 3 days incubation, cell counting kit; read-out: Proliferation inhibitory activity against FIG-ROS/BaF3 cell (IC50). The procedure: A BaF3 cell which had been transformed by introducing the FIG-ROS fusion gene (derived from U118MG human glioma cell) (FIG-ROS/BaF3 Cell) was prepared on a culture medium, seeded on a 96-well plate in the number of 1×10^3/100 μL per well, and then allowed to stand in a CO2 incubator (at 37° C. and 5% CO2). As the culture medium, 10% FBS (fetal bovine serum)-incorporated RPMI-1640 was used.
2. Proliferation Inhibitory Activity Test:
A test substance was dissolved in dimethyl sulfoxide (DMSO) to 10 mM and further diluted with DMSO to 100-fold to prepare a 100 μM solution. This was diluted with a 1% DMSO-incorporated medium to concentrations of 10-fold of the concentration to be measured (10,000, 1,000, 100, 10, and 1 nM). Each of the medicine solutions was added at 11 μL per well and mixed. To a control having no medicine added thereto, a 1% DMSO-incorporated medium was added, and incubated in a CO2 incubator (at 37° C. and 5% CO2) for 3 days. After completion of the incubation, the number of live cells was counted using a cell counting kit. First of all, each cell counting kit solution was added at 5 μL per well and mixed, and incubated in a CO2 incubator (at 37° C. and 5% CO2) for 4 hours. An absorbance at 450 nm was measured with a microplate reader (Model 3550, manufactured by BIO-RAD, Benchmark, manufactured by BIO-RAD, or iMARK, manufactured by BIO-RAD) with a reference wavelength of 650 nm.
as §5
A non-linear regression analysis was performed for the measured absorbance with an SAS system (SAS Institute Inc.), and a concentration of each of the test substances of inhibiting the cell proliferation at 50% (IC50) was calculated. The proliferation inhibitory activity (IC50, nM) of each of the test substances against the FIG-ROS/BaF3 cell is shown in Table 9.

The next test has as its target T3, ROS tyrosine kinase (Homo sapiens, UniProt P08922).
T3 construct: purchased Carna Biosciences, Inc
The test can be described thus: ROS tyrosine kinase inhibitory activity test (ELISA). Conditions: 25 μM ATP substrate solution, 30° C., one hour. Type of test: biochemical, humans. The procedure: as §1, §2, §3, §4, §5, §6

The results in this text go back to patent US9580413B2, “Substituted pyrrolidines as ROS tyrosine kinase inhibitors” (NIPPON SHINYAKU CO., LTD., priority 2012, dated 2017).

In general, IC50 refers to the concentration at which inhibition is half-maximal. A low value points to greater potency.

T3 sequence (P08922 28-2347): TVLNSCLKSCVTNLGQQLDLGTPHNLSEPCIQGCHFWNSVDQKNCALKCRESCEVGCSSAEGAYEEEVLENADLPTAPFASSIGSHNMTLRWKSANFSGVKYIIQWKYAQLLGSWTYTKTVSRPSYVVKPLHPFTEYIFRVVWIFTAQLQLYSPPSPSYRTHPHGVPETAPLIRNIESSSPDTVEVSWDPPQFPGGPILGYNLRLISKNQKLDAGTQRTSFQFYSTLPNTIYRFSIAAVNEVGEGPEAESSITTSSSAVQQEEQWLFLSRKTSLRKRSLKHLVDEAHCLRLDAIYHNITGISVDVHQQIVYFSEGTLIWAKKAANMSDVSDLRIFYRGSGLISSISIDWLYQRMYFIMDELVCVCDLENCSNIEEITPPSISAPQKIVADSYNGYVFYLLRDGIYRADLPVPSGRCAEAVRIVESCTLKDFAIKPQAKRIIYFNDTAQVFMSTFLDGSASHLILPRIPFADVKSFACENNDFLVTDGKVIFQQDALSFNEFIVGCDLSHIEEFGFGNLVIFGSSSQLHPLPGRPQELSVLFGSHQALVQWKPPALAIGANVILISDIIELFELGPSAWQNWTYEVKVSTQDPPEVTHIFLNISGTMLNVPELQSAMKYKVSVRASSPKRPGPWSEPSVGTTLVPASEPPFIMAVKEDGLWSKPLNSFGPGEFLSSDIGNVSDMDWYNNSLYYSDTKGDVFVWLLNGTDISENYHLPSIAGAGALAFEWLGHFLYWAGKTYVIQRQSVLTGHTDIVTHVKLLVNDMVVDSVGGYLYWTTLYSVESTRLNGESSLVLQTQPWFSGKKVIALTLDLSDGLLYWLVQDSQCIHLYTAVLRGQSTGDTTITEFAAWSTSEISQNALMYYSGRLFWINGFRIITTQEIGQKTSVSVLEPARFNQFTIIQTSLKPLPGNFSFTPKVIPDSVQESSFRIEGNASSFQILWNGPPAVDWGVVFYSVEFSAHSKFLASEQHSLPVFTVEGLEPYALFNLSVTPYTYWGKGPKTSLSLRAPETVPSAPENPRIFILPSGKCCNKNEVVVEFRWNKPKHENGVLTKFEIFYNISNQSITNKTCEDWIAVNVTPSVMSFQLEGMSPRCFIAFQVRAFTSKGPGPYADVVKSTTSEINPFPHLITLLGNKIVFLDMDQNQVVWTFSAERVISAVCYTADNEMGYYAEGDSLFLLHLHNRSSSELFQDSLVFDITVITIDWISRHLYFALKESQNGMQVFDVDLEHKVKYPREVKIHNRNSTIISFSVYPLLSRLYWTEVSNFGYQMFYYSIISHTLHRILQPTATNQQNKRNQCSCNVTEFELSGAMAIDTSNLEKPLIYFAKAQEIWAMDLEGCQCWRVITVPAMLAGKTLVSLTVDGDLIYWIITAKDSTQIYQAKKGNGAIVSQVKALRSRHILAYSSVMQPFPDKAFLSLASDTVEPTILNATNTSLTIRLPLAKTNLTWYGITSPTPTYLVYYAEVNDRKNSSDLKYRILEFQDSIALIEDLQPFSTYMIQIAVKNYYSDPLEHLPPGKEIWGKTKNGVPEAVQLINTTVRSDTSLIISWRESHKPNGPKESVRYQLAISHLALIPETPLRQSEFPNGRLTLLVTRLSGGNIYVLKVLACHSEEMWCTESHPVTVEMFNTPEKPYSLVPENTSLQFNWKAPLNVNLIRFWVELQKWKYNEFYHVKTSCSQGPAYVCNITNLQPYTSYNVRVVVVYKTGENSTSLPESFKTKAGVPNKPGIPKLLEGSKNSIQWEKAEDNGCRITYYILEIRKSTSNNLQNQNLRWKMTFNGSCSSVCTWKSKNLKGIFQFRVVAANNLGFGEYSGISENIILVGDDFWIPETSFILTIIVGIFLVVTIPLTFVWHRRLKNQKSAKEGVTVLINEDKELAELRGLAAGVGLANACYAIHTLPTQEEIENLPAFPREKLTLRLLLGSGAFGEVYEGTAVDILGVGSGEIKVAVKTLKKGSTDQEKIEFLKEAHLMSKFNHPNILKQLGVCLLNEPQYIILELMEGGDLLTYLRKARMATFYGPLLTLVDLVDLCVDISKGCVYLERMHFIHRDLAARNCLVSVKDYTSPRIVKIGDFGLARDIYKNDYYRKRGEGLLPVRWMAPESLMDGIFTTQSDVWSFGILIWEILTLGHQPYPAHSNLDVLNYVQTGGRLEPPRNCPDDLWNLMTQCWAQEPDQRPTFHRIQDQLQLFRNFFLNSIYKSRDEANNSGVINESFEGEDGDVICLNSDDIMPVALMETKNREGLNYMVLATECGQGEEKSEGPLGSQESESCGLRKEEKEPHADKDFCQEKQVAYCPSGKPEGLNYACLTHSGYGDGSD
T2 sequence (P08922 whole entry, change not shown, the tested form may be a part): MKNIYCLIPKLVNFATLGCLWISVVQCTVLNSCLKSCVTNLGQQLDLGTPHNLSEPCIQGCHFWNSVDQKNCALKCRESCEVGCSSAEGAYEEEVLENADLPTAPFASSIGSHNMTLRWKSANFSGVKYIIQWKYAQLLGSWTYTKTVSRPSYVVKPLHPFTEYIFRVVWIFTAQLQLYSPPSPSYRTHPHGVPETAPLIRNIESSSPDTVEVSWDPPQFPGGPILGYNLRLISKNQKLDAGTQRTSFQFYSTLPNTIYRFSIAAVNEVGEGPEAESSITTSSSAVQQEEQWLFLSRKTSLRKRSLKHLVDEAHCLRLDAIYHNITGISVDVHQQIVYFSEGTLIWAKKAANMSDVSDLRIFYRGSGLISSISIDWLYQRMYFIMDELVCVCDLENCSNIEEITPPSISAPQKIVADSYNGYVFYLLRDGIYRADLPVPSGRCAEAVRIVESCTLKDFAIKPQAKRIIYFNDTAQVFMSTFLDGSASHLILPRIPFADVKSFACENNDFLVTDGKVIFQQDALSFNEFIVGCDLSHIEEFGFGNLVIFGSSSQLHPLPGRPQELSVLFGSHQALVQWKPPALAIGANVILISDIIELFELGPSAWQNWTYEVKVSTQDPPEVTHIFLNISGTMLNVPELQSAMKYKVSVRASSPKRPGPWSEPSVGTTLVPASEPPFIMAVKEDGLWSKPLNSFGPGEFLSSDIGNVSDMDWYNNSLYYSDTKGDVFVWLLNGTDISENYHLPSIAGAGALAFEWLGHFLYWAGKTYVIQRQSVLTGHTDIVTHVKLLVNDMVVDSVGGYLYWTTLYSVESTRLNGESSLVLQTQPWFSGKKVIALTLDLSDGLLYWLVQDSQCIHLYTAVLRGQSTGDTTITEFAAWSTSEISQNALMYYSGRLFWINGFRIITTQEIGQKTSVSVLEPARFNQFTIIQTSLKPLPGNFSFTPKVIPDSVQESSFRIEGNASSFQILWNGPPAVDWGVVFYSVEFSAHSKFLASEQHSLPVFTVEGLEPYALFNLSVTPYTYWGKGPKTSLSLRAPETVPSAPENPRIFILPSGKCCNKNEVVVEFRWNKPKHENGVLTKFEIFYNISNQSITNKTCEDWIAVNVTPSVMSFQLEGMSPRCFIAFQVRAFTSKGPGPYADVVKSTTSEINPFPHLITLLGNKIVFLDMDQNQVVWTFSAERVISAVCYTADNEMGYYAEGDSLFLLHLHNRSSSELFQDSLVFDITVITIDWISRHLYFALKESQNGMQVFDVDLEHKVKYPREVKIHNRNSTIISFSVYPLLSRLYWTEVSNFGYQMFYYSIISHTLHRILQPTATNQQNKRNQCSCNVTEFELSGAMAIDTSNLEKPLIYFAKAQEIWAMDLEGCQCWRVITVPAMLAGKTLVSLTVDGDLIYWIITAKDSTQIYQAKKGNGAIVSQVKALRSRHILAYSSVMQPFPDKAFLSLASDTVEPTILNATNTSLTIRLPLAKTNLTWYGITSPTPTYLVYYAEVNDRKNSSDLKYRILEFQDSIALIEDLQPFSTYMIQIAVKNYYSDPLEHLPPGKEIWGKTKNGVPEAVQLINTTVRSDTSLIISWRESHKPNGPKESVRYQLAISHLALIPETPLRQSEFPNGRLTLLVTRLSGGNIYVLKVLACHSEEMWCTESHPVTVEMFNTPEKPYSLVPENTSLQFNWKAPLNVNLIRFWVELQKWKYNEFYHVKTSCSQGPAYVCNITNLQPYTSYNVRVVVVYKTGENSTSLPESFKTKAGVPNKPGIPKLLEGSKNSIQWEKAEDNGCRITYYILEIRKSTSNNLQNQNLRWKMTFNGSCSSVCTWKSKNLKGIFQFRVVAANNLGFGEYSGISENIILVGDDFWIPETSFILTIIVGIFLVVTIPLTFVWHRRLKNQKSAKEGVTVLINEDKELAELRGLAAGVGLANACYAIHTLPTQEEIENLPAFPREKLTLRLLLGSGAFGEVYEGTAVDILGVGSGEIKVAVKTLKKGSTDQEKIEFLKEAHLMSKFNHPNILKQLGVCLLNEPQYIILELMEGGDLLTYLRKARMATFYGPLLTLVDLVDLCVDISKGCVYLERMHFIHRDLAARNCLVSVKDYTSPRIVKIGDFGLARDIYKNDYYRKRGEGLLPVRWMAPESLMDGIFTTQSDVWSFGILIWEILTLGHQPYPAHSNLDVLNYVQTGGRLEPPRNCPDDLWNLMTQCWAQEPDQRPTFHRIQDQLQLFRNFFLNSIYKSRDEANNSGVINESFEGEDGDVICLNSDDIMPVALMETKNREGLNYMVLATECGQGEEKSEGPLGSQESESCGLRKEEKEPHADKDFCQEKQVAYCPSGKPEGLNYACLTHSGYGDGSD

With `COc1ccc(-c2nc(N3CCCC3c3ccc(C)cc3)nc(Nc3ncc(C#N)s3)c2C)cn1` (stereo not drawn) [Example 15, 2-({6-(6-Methoxypyridin-3-yl)-5-methyl-2-[2-(4-methylphenyl)pyrrolidin-1-yl]pyrimidin-4-yl}amino)-1,3-thiazole-5-carbonitrile], the results for the concentration for half-maximal inhibition (IC50) against JAK2 tyrosine kinase and at ROS tyrosine kinase were greater than 1000 nM and 16 nM, respectively. For the same molecule, the GI50 on FIG-ROS/BaF3 cell is 20 nM.
In the same order, the values of `COc1cnc(N2CCCC2c2ccc(C)cc2)nc1Nc1ncc(C#N)s1` (stereo not drawn) [Example 19, 2-({5-Methoxy-2-[2-(4-methylphenyl)pyrrolidin-1-yl]pyrimidin-4-yl}amino)-1,3-thiazole-5-carbonitrile] are 220 nM, 2.6 nM and 2.9 nM.
Turning to `N#Cc1cnc(Nc2nc(N3CCCC3c3ccc(F)cc3)cnc2-c2ccncc2)s1` (stereo not drawn) [Example 26, 2-({6-[2-(4-Fluorophenyl)pyrrolidin-1-yl]-3-(pyridin-4-yl)pyrazin-2-yl}amino)-1,3-thiazole-5-carbonitrile], the IC50 against JAK2 tyrosine kinase was greater than 1000 nM; against ROS tyrosine kinase it was 12 nM. Besides, on FIG-ROS/BaF3 cell, the GI50 was 10 nM.
In the same order, the values of `Cc1ccc(C2CCCN2c2cc(C(F)(F)F)cc(Nc3ncc(C#N)s3)n2)cc1` (stereo not drawn) [Example 27, 2-({6-[2-(4-Methylphenyl)pyrrolidin-1-yl]-4-(trifluoromethyl)pyridin-2-yl}amino)-1,3-thiazole-5-carbonitrile] are greater than 1000 nM, 65 nM and 27 nM.
The matching figures for `Cc1ccc([C@@H]2CCCN2c2cnc(C)c(Nc3ncc(C)s3)n2)cc1` [Example 29, 3-Methyl-6-[(2S)-2-(4-methylphenyl)pyrrolidin-1-yl]-N-(5-methyl-1,3-thiazol-2-yl)pyrazine-2-amine]: 140 nM, 1.3 nM and 4.3 nM.
For the molecule `COc1cc(OC)cc(C2CCCN2c2cncc(Nc3ncc(C#N)s3)n2)c1` (stereo not drawn) [Example 32, 2-({6-[2-(3,5-Dimethoxyphenyl)pyrrolidin-1-yl]pyrazin-2-yl}amino)-1,3-thiazol-5-carbonitrile], the IC50 was greater than 1000 nM against JAK2 tyrosine kinase and 4.4 nM at ROS tyrosine kinase. In addition, at FIG-ROS/BaF3 cell, the GI50 came out at 33 nM.
For the molecule `Cc1ccc([C@@H]2CCCN2c2cnc(C3CC3)c(Nc3ncc(C)s3)n2)cc1` [Example 34, 3-Cyclopropyl-6-[(2S)-2-(4-methylphenyl)pyrrolidin-1-yl]-N-(5-methyl-1,3-thiazol-2-yl)pyrazine-2-amine], the IC50 was greater than 1000 nM at JAK2 tyrosine kinase and 4.1 nM against ROS tyrosine kinase. On FIG-ROS/BaF3 cell, the GI50 came out at 12 nM.
In the same order, the values of `N#Cc1cnc(Nc2cncc(N3CCCC3c3ccc(C(F)(F)F)cc3)n2)s1` (stereo not drawn) [Example 39, 2-[(6-{2-[4-(Trifluoromethyl)phenyl]pyrrolidin-1-yl}pyrazin-2-yl)amino]-1,3-thiazole-5-carbonitrile] are greater than 1000 nM, 12 nM and 4.5 nM.
For the molecule `Cc1ccc(C2CCCN2c2nc(Nc3ncc(C#N)s3)c(C)nc2C)cc1` (stereo not drawn) [Example 43, 2-({3,5-Dimethyl-6-[2-(4-methylphenyl)pyrrolidin-1-yl]pyrazin-2-yl}amino)-1,3-thiazole-5-carbonitrile], the 50% inhibitory concentration (IC50) was greater than 1000 nM at JAK2 tyrosine kinase and 4.2 nM against ROS tyrosine kinase. Besides, at FIG-ROS/BaF3 cell, the GI50 came out at 2.1 nM.
The matching figures for `CCc1cnc(Nc2cncc(N3CCCC3c3ccc(C)cc3)n2)s1` (stereo not drawn) [Example 45, N-(5-Ethyl-1,3-thiazol-2-yl)-6-[2-(4-methylphenyl)pyrrolidin-1-yl]pyrazine-2-amine]: 210 nM, 7.3 nM and 7.6 nM.
Turning to `N#Cc1cnc(Nc2cncc(N3CCCC3c3ccc(Cl)cc3)n2)s1` (stereo not drawn) [Example 48, 2-({6-[2-(4-Chlorophenyl)pyrrolidin-1-yl]pyrazin-2-yl}amino)-1,3-thiazole-5-carbonitrile], the results for the concentration for half-maximal inhibition (IC50) at JAK2 tyrosine kinase and on ROS tyrosine kinase were 31 nM and 0.6 nM, respectively. Besides, at FIG-ROS/BaF3 cell, the GI50 came to 1.9 nM.
